# Test results taken from patent publication US11634394B2, “Process for preparation of fungicidally active triazole compounds” (UPL LTD, priority 2018, dated 2023).
# Experiment: Particle size measurement by Malvern Particle Size Analyzer (Mastersizer-Hydro 2000 S M)
# Type: physicochemical
# Conditions: 1 g in 100 ml dispersant medium; prothioconazole prepared according to Example 3
# Method: Particle Size Measurement by Malvern Particle Size Analyzer
# Sample preparation and method of analysis: 1 g of Prothioconazole was taken in 100 ml dispersant medium. The content was mixed well and analyzed in Malvern Mastersizer-Hydro 2000 S M.
compound,measurement,value
"OC(Cc1ccccc1Cl)(Cn1ncnc1S)C1(Cl)CC1 (centres unmarked) [Prothioconazole, 2-(1-chloro-cyclopropyl)-1-(2-chlorophenyl)-3-(5-mercapto-1,2,4-triazol-1-yl)-propan-2-ol]",d (0.5) particle size (volume distribution),202.967 um
same,d (0.9) particle size (volume distribution),367.723 um
